Results: patent publication US11426402B2, “IRE1 activating compounds for use in therapy” (The Scripps Research Institute, priority 2019, dated 2022)

Experiments:
[1] = test system: CHO 7WD10 cells; experiment: CHO 7WD10 viability; type: cell-based
[2] = test system: XBP1 splicing; experiment: XBP1 splicing in wild-type and Ire1-deficient MEF cells; type: cell-based, mouse; conditions: for XBP1 splicing: Ire1-deficient MEF cells; for IRE1-dependent XBP1 splicing: wild-type MEF cells
Method: To amplify the spliced and unspliced XBP1 mRNA, XBP1 primers were used as described previously.^21 PCR products were electrophoresed on 2.5% agarose gel. GAPDH (forward 5′[…]3′, reverse 5′[…]3′) was used as a loading control. The size difference between the spliced and the unspliced XBP1 is 26 nucleotides.
Compounds 474, 198, and 970 were selected as exemplary hits based on their selective IRE1-depedendent induction of DNAJB9, their EC50 of XBP1-RLuc activation of <3 μM and their high maximal activation of IRE1signaling measured by both XBP1s-RLuc activity and DNAJB9 expression (>50% that observed with Tg). […] However, this splicing was not observed in Ire1-deficient MEF cells, further confirming that these compounds increase XBP1 splicing by an IRE1-dependent mechanism.

[3] = test system: IRE1/XBP1s signaling pathway; experiment: XBP1-RLuc splicing reporter in HEK293T-REx cells; type: cell-based; conditions: HEK293-T-REx; HEK293T-REx XBP1-RLuc cells, 18 hr; read-out: EC50 of XBP1-RLuc activation
Method: FIG. 2A and FIG. 2B. Activation of RLuc luminescence in HEK293T-Rex cells stably expressing XBP1s-RLuc treated with 10 μM IRE1 activators in the presence or absence of IRE1 inhibitor 4 μ8c (32 μM) for 18 hr. Luminescence is shown as % signal relative to Tg treatment (500 nM; 18 hr). Error bars represent standard deviation for n=3 replicates (FIG. 2A), Activation of RLuc luminescence in HEK293T-Rex cells stably expressing XBP1s-RLuc treated with the indicated concentrations of IRE1 activator compounds for 18 hr. Luminescence is shown as % signal relative to Tg treatment (500 nM; 18 hr) Error bars represent standard deviation for n=3 replicates (FIG. 2B).
HEK293T-Rex cells incorporating either the XBP1s-Rluc or ERSE-FLuc reporters were collected by trypsinization and resuspended at a density of 500,000 cells per mL. The assay was started by dispensing 5 μL of cell suspension into each well of white, solid-bottom 1536-well plates using a flying reagent dispenser (FRD) and placed into an online incubator for 3 hr. Cells were then treated with 34 nL/well of either test compounds to give final concentrations of 5.17 μM, DMSO (low control, final concentration 0.68%, 0% activation) or 37 μM of Delta-7 thapsigargin (high control, final concentration 500 nM, 100% activation). Plates were incubated for 18 hr at 37° C., removed from the incubator and equilibrated to room temperature for 10 min. Luciferase activity was detected by addition of 5 μL of ONE-Glo reagent (Promega) to each well. After a 10 min incubation time, light emission was measured with the ViewLux reader (PerkinElmer).
The percent activation of each test compound was calculated as follows: % Activation=100*(Test Compound-Median Low Control)/(Median High Control Median Low Control). Primary screening of the 646,275 compound library at Scripps Florida yielded 10,114 hits for XBP1s Renilla Luciferase activity at ≥13.83% activation by thapsigargin. Compounds that hit in more than 7 screens (promiscuity score) were eliminated, as well as those that elicited HSP70 activation. The top 6,391 remaining compounds (activation≥16.36%) were moved forward to triplicate confirmation screening and HEK TREX CTG cytotoxicity counterscreening. Duplicates were removed from the resulting list, and the top 638 activating compounds (≥15.92%) were moved forward for triplicate titration screening and HEK TREX CTG titration counterscreening.
A HEK293^T-REx cell line that stably expresses a XBP1-Renilla luciferase (XBP1-RLuc) splicing reporter was used to identify compounds that activated the IRE1/XBP1s signaling pathway^37. Activated IRE1selectively splices mRNA encoded by this reporter, resulting in a frame-shift that allows expression of the active Renilla luciferase enzyme^37. […]

[4] = test system: XBP1s; experiment: Overlap of compound-induced genes with dox-dependent XBP1s activation in HEK293DAX cells; type: cell-based, human
Method: Cells were lysed and total RNA collected using the RNeasy mini kit, according to manufacturer's instructions (Qiagen). Conventional RNA-seq was conducted via BGI Americas on the BGI Proprietary platform, providing single-end 50 bp reads at 20 million reads per sample. Alignment of sequencing data was done using DNAstar Lasergene SeqManPro to the GRCh37. p 13 human genome reference assembly, and assembly data were imported into ArrayStar 12.2 with QSeq (DNAStar Inc.) to quantify the gene expression levels and normalization to reads per kilobase per million (RPKM). Differential expression analysis and statistical significance calculations between different conditions was assessed using “DESeq” in R, compared to vehicle-treated cells, using a standard negative binomial fit of the RPKM data to generate Fold Change quantifications.
These cells stably express both doxycycline (dox)-inducible XBP1s and trimethoprim (TMP) regulated DHFR.ATF6, allowing stress-independent activation of XBP1s and/or ATF6 signaling through addition of the activating ligands dox or TMP, respectively^8.

Row | SMILES | cellular viability [1] | XBP1 splicing [2] | IRE1-dependent XBP1 splicing [2] | EC50 [3] | overlap of genes induced >1.2 fold with dox-dependent XBP1s activation [4] | top 100 induced genes overlapping with genes induced by dox-dependent XBP1s activation [4] | induction of most non-overlapping genes [4]
1 | CCOC(CNC(=O)C1CCCN(Cc2nc(-c3ccc(Cl)cc3)oc2C)C1)OCC (stereo not drawn) [Compound 198] | without impacting cellular viability | not observed | increased | < 3 µM | less overlap |  | 
2 | Cc1ccc(OCCN(C)C(=O)Cn2cc(NC(=O)CCOc3ccccc3)cn2)cc1 [Compound 474] | without impacting cellular viability | not observed | increased | < 3 µM | > 80% | majority | 
3 | O=C(CN(Cc1ccc(Cl)cc1)S(=O)(=O)c1cccnc1)N1CCc2ccccc21 [Compound 970] | without impacting cellular viability | not observed | increased | < 3 µM | > 60% | majority | < 1.3 fold
